Measurements: patent US10125135B2, “Chemical compounds” (AstraZeneca AB, priority 2016, dated 2018)

Columns and labels:
[1] = molecular target: ERα receptor in MCF-7 human ductal carcinoma breast cell line (Homo sapiens (Human), UniProt P03372); assay: MCF-7 ER down regulation assay (immuno-fluorescence); assay type: cell-based; conditions: MCF-7 cells; for DC50: 18-22 hours incubation, read-out: ER down regulation IC50 value; for % downregulation (in brackets) in ER down regulation assay: >90% unless otherwise stated
Method: MCF-7 ER Down Regulation Assay
The ability of compounds to down-regulate Estrogen Receptor (ER) numbers was assessed in a cell based immuno-fluorescence assay using the MCF-7 human ductal carcinoma breast cell line. MCF-7 cells were revived directly from a cryovial (approx 5×10^6 cells) in Assay Medium (phenol red free Dulbecco's Modified Eagle's medium (DMEM) (Sigma D5921) containing 2mM L-Glutamine and 5% (v/v) Charcoal/Dextran treated foetal calf serum. Cells were syringed once using a sterile 18 G×1.5 inch (1.2×40 mm) broad gauge needle and cell density was measured using a Coulter Counter (Beckman). Cells were further diluted in Assay Medium to a density of 3.75×10^4 cells per mL and 40 μL per well added to transparent bottomed, black, tissue culture treated 384 well plates (Costar, No. 3712) using a Thermo Scientific Matrix WellMate or Thermo Multidrop. Following cell seeding, plates were incubated overnight at 37° C., 5% CO2 (Liconic carousel incubator). Test data was generated using the LabCyte Echo™ model 555 compound reformatter which is part of an automated workcell (Integrated Echo 2 workcell). 10 mM compound stock solutions of the test compounds were used to generate a 384 well compound dosing plate (Labcyte P-05525-CV1). […] 40 μΛ of DMSO added to wells in row P on the source plate allow for DMSO normalisation across the dose range. To dose the control wells 40 μL of DMSO was added to row O1 and 40 μL of 100 μM fulvestrant in DMSO was added to row O3 on the compound source plate. […] Compounds were dispensed onto the cell plates with a compound source plate prepared as above producing a 12 pt duplicate 3 μM to 3 pM dose range with 3 fold dilutions and one final 10 fold dilution using the Integrated Echo 2 workcell. […] Cells were fixed at room temperature for 20 mins before being washed two times with 250 μL PBS/Proclin (PBS with a Biocide preservative) using a BioTek platewasher, 40 μL of PBS/Proclin was then added to all wells and the plates stored at 4° C. The fixing method described above was carried out on the Integrated Echo 2 workcell. Immunostaining was performed using an automated AutoElisa workcell. The PBS/Proclin was aspirated from all wells and the cells permeabilised with 40 μL PBS containing 0.5% Tween™ 20 (v/v) for 1 hour at room temperature. The plates were washed three times in 250 μL of PBS/0.05% (v/v) Tween 20 with Proclin (PBST with a Biocide preservative) and then 20 μL of ERα (SP1) Rabbit monoclonal antibody (Thermofisher) 1:1000 in PBS/Tween™/3% (w/v) Bovine Serum Albumin was added. The plates were incubated overnight at 4° C. (Liconic carousel incubator) and then washed three times in 250 μL of PBS/0.05% (v/v) Tween™ 20 with Proclin (PBST). The plates were then incubated with 20 μL/well of a goat anti-rabbit IgG AlexaFluor 594 or goat anti-rabbit AlexaFluor 488 antibody (Molecular Probes) with Hoechst at 1:5000 in PBS/Tween™/3% (w/v) Bovine Serum Albumin for lhour at room temperature. The plates were then washed three times in 250 μL of PBS/0.05% (v/v) Tween™ 20 with Proclin (PBST with a Biocide preservative). 20 μL of PBS was added to each well and the plates covered with a black plate seal and stored at 4° C. before being read. Plates were read using a Cellomics Arrayscan reading the 594 nm (24 hr time point) or 488 nm (5 hr timepoint) fluorescence to measure the ERα receptor level in each well. The mean total intensity was normalized for cell number giving the total intensity per cell.

[2] = Human hepatocyte assay (metabolic stability); assay type: in vitro ADME; conditions: human hepatocytes, 37° C., 1.0×10^6 viable cells/mL; read-out: Clint (in vitro intrinsic clearance)
Method: The metabolic stability of compounds in human hepatocytes was assessed using the following protocol: • 1. Prepare 10 mM stock solutions of compound and control compounds in appropriate solvent (DMSO). Place incubation medium (L-15Medium) in a 37° C. water bath, and allow warming for at least 15 minutes prior to use. • 2. Add 80 μL of acetonitrile to each well of the 96-well deep well plate (quenching plate). • 3. In a new 96-well plate, dilute the 10 mM test compounds and the control compounds to 100 μM by combining 198 μL of acetonitrile and 2 μL of 10 mM stock. • 4. Remove a vial of cryopreserved (less than −150° C.) human hepatocytes (LiverPool™ 10 Donor Human hepatocytes obtained from Celsis IVT. Chicago, Ill. (Product No. S01205)) from storage, ensuring that vials remain at cryogenic temperatures until thawing process ensues. As quickly as possible, thaw the cells by placing the vial in a 37° C. water bath and gently shaking the vials. Vials should remain in water bath until all ice crystals have dissolved and are no longer visible. After thawing is completed, spray vial with 70% ethanol, transfer the vial to a bio-safety cabinet. • 5. Open the vial and pour the contents into the 50 mL conical tube containing thawing medium. Place the 50 mL conical tube into a centrifuge and spin at 100 g for 10 minutes. […] Using Cellometer® Vision, count cells and determine the viable cell density. Cells with poor viability (<80% viability) are not acceptable for use. Dilute cells with incubation medium to a working cell density of 1.0×10^6 viable cells/mL. • 7. Transfer 247.5 μL of hepatocytes into each well of a 96-well cell culture plate. Place the plate on Eppendorf Thermomixer Comfort plate shaker to allow the hepatocytes to warm for 10 minutes. • 8. Add 2.5 μL of 100 μM test compound or control compounds into an incubation well containing cells, mix to achieve a homogenous suspension at 0.5 min, which when achieved, will define the 0.5 min time point. At the 0.5 min time, transfer 20 μL incubated mixture to wells in a “Quenching plate” followed by vortexing. • 9. Incubate the plate at 37° C. at 900 rpm on an Eppendorf Thermomixer Comfort plate shaker. At 5, 15, 30, 45, 60, 80, 100 and 120 min, mix the incubation system and transfer samples of 20 μL incubated mixture at each time point to wells in a separate “Quenching plate” followed by vortexing. • 10. Centrifuge the quenching plates for 20 minutes at 4,000 rpm. 4 different compounds are pooled into one cassette and used for LC/MS/MS analysis.
All calculations are carried out using Microsoft Excel. Peak areas are determined from extracted ion chromatograms. In vitro intrinsic clearance (in vitro Clint, in μL/min/10^6 cells) of parent compound is determined by regression analysis of the Ln percent parent disappearance vs. time curve. The in vitro intrinsic clearance (in vitro Clint, in μL/min/10^6 cells) is determined from the slope value using the following equation and is shown in Table C:
V=incubation volume (0.25 mL);
N=number of hepatocytes per well (0.25×10 ^6 cells).

ERα receptor in MCF-7 human ductal carcinoma breast cell line, sequence (P03372 whole entry): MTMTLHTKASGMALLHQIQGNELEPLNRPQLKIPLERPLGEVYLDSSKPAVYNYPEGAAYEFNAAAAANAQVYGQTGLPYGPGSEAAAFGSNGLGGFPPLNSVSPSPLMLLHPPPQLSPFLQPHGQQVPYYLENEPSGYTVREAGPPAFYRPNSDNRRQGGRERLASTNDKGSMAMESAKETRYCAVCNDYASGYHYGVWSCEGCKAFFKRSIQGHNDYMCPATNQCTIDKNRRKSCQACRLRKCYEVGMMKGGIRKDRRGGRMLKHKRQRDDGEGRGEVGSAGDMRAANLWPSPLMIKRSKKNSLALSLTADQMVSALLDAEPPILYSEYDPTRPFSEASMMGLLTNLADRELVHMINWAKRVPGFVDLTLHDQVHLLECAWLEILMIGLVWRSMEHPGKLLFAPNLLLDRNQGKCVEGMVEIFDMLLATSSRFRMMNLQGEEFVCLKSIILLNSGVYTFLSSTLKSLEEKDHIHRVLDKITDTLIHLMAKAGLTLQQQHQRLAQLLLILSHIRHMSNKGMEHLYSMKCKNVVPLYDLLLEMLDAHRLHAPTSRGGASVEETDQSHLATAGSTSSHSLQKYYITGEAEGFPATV

DC50 [1]	% downregulation (in brackets) in ER down regulation assay [1]	Structure (SMILES)	hepatocyte CLint at 1 µM [2]
0.2 nM		C[C@@H]1Cc2c(ccc3[nH]ncc23)[C@@H](c2ccc(OCCN3CC(CF)C3)cc2)N1CC1(F)COC1 [Example 31, (6R,8R)-6-(4-(2-(3-(fluoromethyl)azetidin-1-yl)ethoxy)phenyl)-7-((3-fluorooxetan-3-yl)methyl)-8-methyl-6,7,8,9-tetrahydro-3H-pyrazolo[4,3-f]isoquinoline]	38 µL/min/1e6 cells
0.088 nM		C[C@@H]1Cc2c(ccc3[nH]ncc23)[C@@](C)(c2c(F)cc(OCCN3CC(CF)C3)cc2F)N1CC(C)(C)F [Example 2, (6S,8R)-6-(2,6-difluoro-4-(2-(3-(fluoromethyl)azetidin-1-yl)ethoxy)phenyl)-7-(2-fluoro-2-methylpropyl)-6,8-dimethyl-6,7,8,9-tetrahydro-3H-pyrazolo[4,3-f]isoquinoline]	8 µL/min/1e6 cells
0.35 nM		C[C@@H]1Cc2c(ccc3[nH]ncc23)[C@@H](c2ccc(OCCN3CC(CF)C3)cc2)N1CC1(F)CC1 [Example 29, (6R,8R)-7-((1-fluorocyclopropyl)methyl)-6-(4-(2-(3-(fluoromethyl)azetidin-1-yl)ethoxy)phenyl)-8-methyl-6,7,8,9-tetrahydro-3H-pyrazolo[4,3-f]isoquinoline]	12 µL/min/1e6 cells
0.28 nM	86%	C[C@@H]1Cc2c(ccc3[nH]ncc23)[C@@H](c2c(F)cc(NCCN3CC(CF)C3)cc2F)N1CC(C)(C)F [Example 47, 3,5-difluoro-4-((6S,8R)-7-(2-fluoro-2-methylpropyl)-8-methyl-6,7,8,9-tetrahydro-3H-pyrazolo[4,3-f]isoquinolin-6-yl)-N-(2-(3-(fluoromethyl)azetidin-1-yl)ethyl)aniline]	8 µL/min/1e6 cells
0.16 nM	80%	CC(C)(F)CN1[C@H](C(F)F)Cc2c(ccc3[nH]ncc23)[C@@]1(C)c1c(F)cc(OCCN2CC(CF)C2)cc1F [Example 4, (6S,8S)-6-(2,6-difluoro-4-(2-(3-(fluoromethyl)azetidin-1-yl)ethoxy)phenyl)-8-(difluoromethyl)-7-(2-fluoro-2-methylpropyl)-6-methyl-6,7,8,9-tetrahydro-3H-pyrazolo[4,3-f]isoquinoline]	10 µL/min/1e6 cells
0.087 nM		C[C@@H]1Cc2c(ccc3[nH]ncc23)[C@@](C)(c2ccc(OCCN3CC(CF)C3)cc2)N1CC1(F)CC1 [Example 30, (6R,8R)-7-((1-fluorocyclopropyl)methyl)-6-(4-(2-(3-(fluoromethyl)azetidin-1-yl)ethoxy)phenyl)-6,8-dimethyl-6,7,8,9-tetrahydro-3H-pyrazolo[4,3-f]isoquinoline]	13 µL/min/1e6 cells
0.29 nM		C[C@@H]1Cc2c(ccc3[nH]ncc23)[C@@H](c2ccc(OCCN3CC(CF)C3)cn2)N1CC(C)(F)F [Example 41, (6S,8R)-7-(2,2-difluoropropyl)-6-(5-(2-(3-(fluoromethyl)azetidin-1-yl)ethoxy)pyridin-2-yl)-8-methyl-6,7,8,9-tetrahydro-3H-pyrazolo[4,3-f]isoquinoline]	
0.59 nM		C[C@@H]1Cc2c(ccc3[nH]nc(F)c23)[C@@H](c2c(F)cc(OCCN3CC(CF)C3)cc2F)N1CC1(F)COC1 [Example 43, (6S,8R)-6-(2,6-difluoro-4-(2-(3-(fluoromethyl)azetidin-1-yl)ethoxy)phenyl)-1-fluoro-7-((3-fluorooxetan-3-yl)methyl)-8-methyl-6,7,8,9-tetrahydro-3H-pyrazolo[4,3-f]isoquinoline]	
0.13 nM		COc1cc(OCCN2CC(CF)C2)ccc1[C@@H]1c2ccc3[nH]ncc3c2C[C@@H](C)N1CC(C)(F)CF (single isomer, unassigned) [Example 20]	
0.059 nM		COc1cc(OCCN2CC(CF)C2)cc(F)c1[C@@H]1c2ccc3[nH]ncc3c2C[C@@H](C)N1CC(F)(F)CF [Example 27, (6S,8R)-6-(2-fluoro-4-(2-(3-(fluoromethyl)azetidin-1-yl)ethoxy)-6-methoxyphenyl)-8-methyl-7-(2,2,3-trifluoropropyl)-6,7,8,9-tetrahydro-3H-pyrazolo[4,3-f]isoquinoline]	
0.15 nM		COc1cc(OCCN2CC(CF)C2)ccc1[C@@H]1c2ccc3[nH]ncc3c2C[C@@H](C)N1CC(F)(F)CF [Example 22, (6S,8R)-6-(4-(2-(3-(fluoromethyl)azetidin-1-yl)ethoxy)-2-methoxyphenyl)-8-methyl-7-(2,2,3-trifluoropropyl)-6,7,8,9-tetrahydro-3H-pyrazolo[4,3-f]isoquinoline]	

Structure (SMILES)	DC50 [1]	% downregulation (in brackets) in ER down regulation assay [1]	hepatocyte CLint at 1 µM [2]
C[C@@H]1Cc2c(ccc3[nH]ncc23)[C@@H](c2c(F)cc(OCCN3CC(CF)C3)cc2F)N1CC(C)(C)F [Example 1, (6S,8R)-6-(2,6-difluoro-4-(2-(3-(fluoromethyl)azetidin-1-yl)ethoxy)phenyl)-7-(2-fluoro-2-methylpropyl)-8-methyl-6,7,8,9-tetrahydro-3H-pyrazolo[4,3-f]isoquinoline]	0.097 nM		8 µL/min/1e6 cells
CC(C)CN1[C@H](c2ccc(OCCN3CC(CF)C3)cn2)c2ccc3[nH]ncc3c2C[C@H]1C [Example 40, (6S,8R)-6-(5-(2-(3-(fluoromethyl)azetidin-1-yl)ethoxy)pyridin-2-yl)-7-isobutyl-8-methyl-6,7,8,9-tetrahydro-3H-pyrazolo[4,3-f]isoquinoline]	0.36 nM		8 µL/min/1e6 cells
CC(C)CN1[C@H](c2c(F)cc(OCCN3CC(CF)C3)cc2F)c2ccc3[nH]ncc3c2C[C@H]1C [Example 33, (6S,8R)-6-(2,6-difluoro-4-(2-(3-(fluoromethyl)azetidin-1-yl)ethoxy)phenyl)-7-isobutyl-8-methyl-6,7,8,9-tetrahydro-3H-pyrazolo[4,3-f]isoquinoline]	0.21 nM		9 µL/min/1e6 cells
